The test addresses T1, human TLR8 (Homo sapiens, UniProt Q9NR97).
T1 construct: host or cells: HEK-Blue cells
T1 sequence (Q9NR97 27-1041): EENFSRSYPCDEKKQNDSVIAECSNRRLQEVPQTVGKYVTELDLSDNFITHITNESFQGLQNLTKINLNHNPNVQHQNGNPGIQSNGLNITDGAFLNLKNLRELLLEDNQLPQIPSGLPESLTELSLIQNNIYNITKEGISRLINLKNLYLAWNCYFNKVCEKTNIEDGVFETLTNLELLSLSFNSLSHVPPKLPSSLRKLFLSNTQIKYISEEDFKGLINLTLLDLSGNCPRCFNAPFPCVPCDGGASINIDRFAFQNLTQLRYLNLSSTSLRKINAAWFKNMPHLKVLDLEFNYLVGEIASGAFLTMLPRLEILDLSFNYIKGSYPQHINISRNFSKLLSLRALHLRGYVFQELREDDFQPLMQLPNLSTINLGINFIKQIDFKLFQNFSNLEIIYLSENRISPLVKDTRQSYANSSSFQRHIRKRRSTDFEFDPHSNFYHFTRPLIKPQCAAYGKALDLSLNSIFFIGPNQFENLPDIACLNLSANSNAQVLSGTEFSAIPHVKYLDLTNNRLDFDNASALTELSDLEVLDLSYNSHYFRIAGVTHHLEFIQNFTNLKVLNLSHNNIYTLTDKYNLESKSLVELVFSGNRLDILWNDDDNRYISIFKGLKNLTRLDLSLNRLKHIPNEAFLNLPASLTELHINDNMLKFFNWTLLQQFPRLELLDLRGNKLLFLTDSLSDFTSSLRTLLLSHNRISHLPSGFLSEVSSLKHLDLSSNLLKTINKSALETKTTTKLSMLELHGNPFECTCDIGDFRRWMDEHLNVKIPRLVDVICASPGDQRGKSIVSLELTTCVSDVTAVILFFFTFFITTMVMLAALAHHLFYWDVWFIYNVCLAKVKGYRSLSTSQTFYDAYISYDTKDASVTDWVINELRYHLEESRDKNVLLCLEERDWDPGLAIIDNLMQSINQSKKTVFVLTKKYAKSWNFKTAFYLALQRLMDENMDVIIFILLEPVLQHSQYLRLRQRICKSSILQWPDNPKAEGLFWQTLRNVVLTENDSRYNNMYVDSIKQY
Description: TLR8 inhibition reporter assay (HEK-Blue SEAP). Type of test: cell-based. Particulars: HEK-Blue cells overexpressing human TLR8, R848 15.9 μM, 22 hour incubation. The method in brief:
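Compound treatment: 30 min, RT, 0.05 nM–50 μM final. Agonist: TLR7 gardiquimod 7.5 μM; TLR8 R848 15.9 μM; TLR9 ODN2006 5 nM. Incubation 22 h, 37 °C, 5% CO2. Readout SEAP, HEK-Blue Detection.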
For orientation: In a reporter assay the amount or activity of a reporter protein is the signal.
Regarding `CCCN1CCC(n2c(=O)[nH]c3cc(-c4cc(OC)c5ncnn5c4)c(C(C)C)cc32)CC1` [Example 155, 6-isopropyl-5-(8-methoxy-[1,2,4]triazolo[1,5-a]pyridin-6-yl)-1-(1-propylpiperidin-4-yl)-1,3-dihydro-2H-benzo[d]imidazol-2-one], 9.56 nM corresponded to half-maximal inhibition (IC50). On to `COc1cc(-c2cc3[nH]c(=O)n([C@H]4CCCN(C5CCC5)C4)c3cc2C(C)C)cn2ncnc12` [Example 122, (S)-1-(1-cyclobutylpiperidin-3-yl)-6-isopropyl-5-(8-methoxy-[1,2,4]triazolo[1,5-a]pyridin-6-yl)-1,3-dihydro-2H-benzo[d]imidazol-2-one], for which the midpoint of inhibition, the IC50, lay at 1.5 nM.

For the compound `Cc1cc(-c2ccc3c(c2)[nH]c(=O)n3C2CCN(C)CC2)cn2ncnc12` [Example 4, 5-(8-methyl-[1,2,4]triazolo[1,5-a]pyridin-6-yl)-1-(1-methylpiperidin-4-yl)-1,3-dihydro-2H-benzo[d]imidazol-2-one], it took 1280 nM to reach half-maximal inhibition (IC50). In the case of `COc1cc(-c2cc3[nH]c(=O)n([C@@H]4CCCN(C(C)C)C4)c3cc2C(F)(F)F)cn2ncnc12` [Example 111, (R)-1-(1-isopropylpiperidin-3-yl)-5-(8-methoxy-[1,2,4]triazolo[1,5-a]pyridin-6-yl)-6-(trifluoromethyl)-1,3-dihydro-2H-benzo[d]imidazol-2-one], the IC50 (in general, the concentration needed to halve the response being measured) worked out at 12.6 nM.

Take `COc1cc(-c2cc3[nH]c(=O)n([C@H]4CCCN(CC5CC5)C4)c3cc2C(C)C)cn2ncnc12` [Example 127, (S)-1-(1-(cyclopropylmethyl)piperidin-3-yl)-6-isopropyl-5-(8-methoxy-[1,2,4]triazolo[1,5-a]pyridin-6-yl)-1,3-dihydro-2H-benzo[d]imidazol-2-one]: the IC50 stood at 2.8 nM. Then `COc1cc(-c2cc3[nH]c(=O)n(C4CCN(CC5CCOCC5)CC4)c3cc2C(C)C)cn2ncnc12` [Example 159, 6-isopropyl-5-(8-methoxy-[1,2,4]triazolo[1,5-a]pyridin-6-yl)-1-(1-((tetrahydro-2H-pyran-4-yl)methyl)piperidin-4-yl)-1,3-dihydro-2H-benzo[d]imidazol-2-one], with 4.52 nM; and `CCN1CCC(n2c(=O)[nH]c3cc(-c4cc(C)c5ncnn5c4)c(C)cc32)CC1` [Example 6, 1-(1-ethylpiperidin-4-yl)-6-methyl-5-(8-methyl-[1,2,4]triazolo[1,5-a]pyridin-6-yl)-1,3-dihydro-2H-benzo[d]imidazol-2-one], with 46.3 nM; and `COc1cc(-c2cc3[nH]c(=O)n(C4CCN(CC5CC5)CC4)c3cc2C(C)C)cn2ncnc12` [Example 161, 1-(1-(cyclopropylmethyl)piperidin-4-yl)-6-isopropyl-5-(8-methoxy-[1,2,4]triazolo[1,5-a]pyridin-6-yl)-1,3-dihydro-2H-benzo[d]imidazol-2-one], with 6.04 nM. Take `COc1cc(-c2cc3[nH]c(=O)n([C@H]4CCCN(CC5CCOCC5)C4)c3cc2C(C)C)cn2ncnc12` [Example 125, (S)-6-isopropyl-5-(8-methoxy-[1,2,4]triazolo[1,5-a]pyridin-6-yl)-1-(1-((tetrahydro-2H-pyran-4-yl)methyl)piperidin-3-yl)-1,3-dihydro-2H-benzo[d]imidazol-2-one]: 2.37 nM corresponded to half-maximal inhibition (IC50). To `CCc1cc2c(cc1-c1cc(OC)c3ncnn3c1)[nH]c(=O)n2[C@H]1CC[C@@H](NC(C)C)CC1` [Example 167, 6-ethyl-1-((1s,4s)-4-(isopropylamino)cyclohexyl)-5-(8-methoxy-[1,2,4]triazolo[1,5-a]pyridin-6-yl)-1,3-dihydro-2H-benzo[d]imidazol-2-one] belongs 0.82 nM; to `COc1cc(-c2cc3[nH]c(=O)n(C4CCN(C(C)C)CC4)c3cc2C(C)C)cn2ncnc12` [Example 163, 6-isopropyl-1-(1-isopropylpiperidin-4-yl)-5-(8-methoxy-[1,2,4]triazolo[1,5-a]pyridin-6-yl)-1,3-dihydro-2H-benzo[d]imidazol-2-one], 7.58 nM. To `Cc1c(-c2cc3[nH]c(=O)n([C@@H]4CCCN(C(C)C)C4)c3cc2C(C)C)cn2ncnc2c1C` [Example 145, (R)-5-(7,8-dimethyl-[1,2,4]triazolo[1,5-a]pyridin-6-yl)-6-isopropyl-1-(1-isopropylpiperidin-3-yl)-1,3-dihydro-2H-benzo[d]imidazol-2-one] belongs 2.1 nM. Then `CCC(CC)CN1CCC[C@@H](n2c(=O)[nH]c3cc(-c4cc(OC)c5ncnn5c4)c(C(C)C)cc32)C1` [Example 148, (R)-1-(1-(2-ethylbutyl)piperidin-3-yl)-6-isopropyl-5-(8-methoxy-[1,2,4]triazolo[1,5-a]pyridin-6-yl)-1,3-dihydro-2H-benzo[d]imidazol-2-one], with 1.09 nM. Turning to `COc1cc(-c2cc3[nH]c(=O)n([C@@H]4CCCN(CC5CCC5)C4)c3cc2C(C)C)cn2ncnc12` [Example 140, (R)-1-(1-(cyclobutylmethyl)piperidin-3-yl)-6-isopropyl-5-(8-methoxy-[1,2,4]triazolo[1,5-a]pyridin-6-yl)-1,3-dihydro-2H-benzo[d]imidazol-2-one], the IC50 worked out at 3.92 nM. Regarding `Cc1c(-c2cc3[nH]c(=O)n([C@@H]4CCCN(C)C4)c3cc2C(C)C)cn2ncnc2c1C` [Example 147, (R)-5-(7,8-dimethyl-[1,2,4]triazolo[1,5-a]pyridin-6-yl)-6-isopropyl-1-(1-methylpiperidin-3-yl)-1,3-dihydro-2H-benzo[d]imidazol-2-one], the IC50 was 23.5 nM. Then `COc1cc(-c2cc3[nH]c(=O)n([C@@H]4CCCN(CC5CCOCC5)C4)c3cc2C(C)C)cn2ncnc12` [Example 139, (R)-6-isopropyl-5-(8-methoxy-[1,2,4]triazolo[1,5-a]pyridin-6-yl)-1-(1-((tetrahydro-2H-pyran-4-yl)methyl)piperidin-3-yl)-1,3-dihydro-2H-benzo[d]imidazol-2-one], with 1.27 nM; and `CCN1CCC[C@@H](n2c(=O)[nH]c3cc(-c4cc(OC)c5ncnn5c4)c(C(F)(F)F)cc32)C1` [Example 110, (R)-1-(1-ethylpiperidin-3-yl)-5-(8-methoxy-[1,2,4]triazolo[1,5-a]pyridin-6-yl)-6-(trifluoromethyl)-1,3-dihydro-2H-benzo[d]imidazol-2-one], with 4.06 nM; and `Cc1cc2c(cc1-c1cc(C)c3ncnn3c1)[nH]c(=O)n2C1CCN(C)CC1` [Example 3, 6-methyl-5-(8-methyl-[1,2,4]triazolo[1,5-a]pyridin-6-yl)-1-(1-methylpiperidin-4-yl)-1,3-dihydro-2H-benzo[d]imidazol-2-one], with 36.8 nM. Then `COc1cc(-c2cc3[nH]c(=O)n([C@@H]4CCCN(C)C4)c3cc2C(C)C)cn2ncnc12` [Example 136, (R)-6-isopropyl-5-(8-methoxy-[1,2,4]triazolo[1,5-a]pyridin-6-yl)-1-(1-methylpiperidin-3-yl)-1,3-dihydro-2H-benzo[d]imidazol-2-one], with 2.01 nM; and `CCN1CCC[C@@H](n2c(=O)[nH]c3cc(-c4cc(OC)c5ncnn5c4)c(C(C)C)cc32)C1` (single isomer, unassigned) [Example 144], with 5.02 nM; and `Cc1cc(-c2cc(C)c3ncnn3c2)cc2[nH]c(=O)n(C3CCN(C)CC3)c12` [Example 106, 7-methyl-5-(8-methyl-[1,2,4]triazolo[1,5-a]pyridin-6-yl)-1-(1-methylpiperidin-4-yl)-1,3-dihydro-2H-benzo[d]imidazol-2-one], with 150 nM.
